Laboratory results taken from patent US10071129B2, “Method for identifying bromodomain inhibitors” (WHITEHEAD INSTITUTE FOR BIOMEDICAL RESEARCH DANA-FARBER …, priority 2011, dated 2018).

Key:
[1] = system: multiple myeloma cells; experiment: Antiproliferative effect of JQ1 treatment in multiple myeloma cells; type: cell-based; conditions: multiple myeloma cells treated with JQ1
Experimental: (§1) To test BET bromodomain inhibitors as a strategy to downregulate the cMyc transcriptional network and the mechanism of downregulation, multiple myeloma cells were treated with JQ1.

[2] = system: cMyc; experiment: cMyc protein levels after JQ1 treatment of multiple myeloma cells; type: cell-based; conditions: multiple myeloma cells treated with JQ1
Experimental: as §1

[3] = system: cMyc target genes; experiment: Genome-wide expression of cMyc target genes and MYC transcription after JQ1 treatment; type: cell-based
Experimental: as §1

[4] = molecular target: BRD4 (Homo sapiens, UniProt O60885); conditions: MM.1S cells, 500 nM, 24 hours
Experimental: Approximately 1×10^8 MM1S cells were treated with 500 nM JQ1 or DMSO for 24 hours and crosslinked with 1.1% formaldehyde (10× crosslink solution contains 11% formaldehyde, 50 mM Hepes pH7.3, 100 mM NaCl, 1 mM EDTA p118.0, 0.5 mM EGTA pH8.0) to the growth media followed by two washes with PBS. Cells were scraped and frozen in liquid nitrogen. Brd4 ChIP-PCR analysis was done on these cells following the protocol in Rahl et al. Cell 2010. In brief, 75 ul of Dynal magnetic beads (Sigma) were blocked with 0.5% BSA (w/v) in PBS. Magnetic beads were bound with 6.25 ug of Brd4 antibody (Bethyl Labs, A310-985A, lot A301-985A-1, FIG. 1A or Sigma, HPA015055-100, lot A31530, FIG. 1B). […]
Brd4 ChIP and input DNA were analyzed using SYBR Green real-time PCR analysis (Applied Biosystems). […] Fold enrichment was determined from triplicate PCR reactions at five potential enhancer regions adjacent to the MYC gene in non-translocated cells (MYC_E1, MYC_E2, MYC_E3, MYC_E4, MYC_E5), the MYC transcriptional start site (MYC_TS1, MYC_TS2), IGH enhancer regions (IGH_E1, IGH_E2, IGH_E3, IGH_E4), and two negative regions upstream of the MYC enhancers (MYC_NR2, MYC_NR3) over input DNA using DDCt over the negative region MYC_NR1.

## Cc1sc2c(c1C)C(c1ccc(Cl)cc1)=N[C@@H](CC(=O)OC(C)(C)C)c1nnc(C)n1-2 [JQ1, [(S)-4-(4-Chloro-phenyl)-2,3,9-trimethyl-6H-1-thia-5,7,8,9a-tetraaza-cyclopenta[e]azulen-6-yl]-acetic acid tert-butyl ester]
[1]
  antiproliferative effect: potent antiproliferative effect
[2]
  cMyc protein levels: rapid downregulation of cMyc protein levels
[3]; multiple myeloma cells treated with JQ1
  MYC transcription: early and sustained JQ1-induced suppression of MYC transcription
[3]; multiple myeloma cells treated with JQ1, genome-wide
  expression of cMyc target genes: genome-wide downregulation of cMyc target genes
[4]
  BRD4 binding to IgH enhancers and the TSS (ChIP): significantly depleted BRD4 binding to IgH enhancers and the TSS
